Assays:
Human GLP-1 receptors = Human GLP-1 receptors (Homo sapiens, UniProt P43220); assay: GLP-1 receptor activation assay (CRE-luciferase reporter, CHO-K1)
Procedure: (§1) Then, the resulting increased luciferase activity was evaluated as a measurement of the effect on each receptor activation.
(§2) After 3 hours of transfection, medium was exchanged to Alpha Minimal Essential Medium (α-MEM) comprising 10% fetal bovine serum (FBS). Next day, the medium was exchanged to α-MEM comprising the analog of the present invention and 0.1% bovine serum albumin (BSA). After 6 hours, dual luciferase assay reagent was added in the same amount as the medium in which the cells were submerged, and firefly luciferase and Renilla luciferase activities were continuously measured. Firefly luciferase activity values were corrected against Renilla luciferase activity to yield transfection efficiency.

Human glucagon receptors = Human glucagon receptors (Homo sapiens, UniProt P47871); assay: Glucagon receptor activation assay (CRE-luciferase reporter, CHO-K1)
Human glucagon receptors, sequence (P47871 26-477): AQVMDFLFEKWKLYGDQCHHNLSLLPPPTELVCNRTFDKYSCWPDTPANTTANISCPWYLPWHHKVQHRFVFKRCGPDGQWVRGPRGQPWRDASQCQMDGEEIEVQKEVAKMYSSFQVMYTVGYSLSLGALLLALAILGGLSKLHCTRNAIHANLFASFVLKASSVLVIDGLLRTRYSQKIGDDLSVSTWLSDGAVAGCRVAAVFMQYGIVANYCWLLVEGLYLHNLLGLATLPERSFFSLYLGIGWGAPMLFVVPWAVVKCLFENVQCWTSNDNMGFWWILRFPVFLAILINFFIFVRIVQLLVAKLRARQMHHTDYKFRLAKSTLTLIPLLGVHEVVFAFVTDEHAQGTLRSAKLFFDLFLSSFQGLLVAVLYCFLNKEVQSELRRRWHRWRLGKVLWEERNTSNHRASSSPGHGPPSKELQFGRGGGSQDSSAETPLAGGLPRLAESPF
Procedure: as §1, §2

Human GLP-1 receptors, sequence (P43220 24-463): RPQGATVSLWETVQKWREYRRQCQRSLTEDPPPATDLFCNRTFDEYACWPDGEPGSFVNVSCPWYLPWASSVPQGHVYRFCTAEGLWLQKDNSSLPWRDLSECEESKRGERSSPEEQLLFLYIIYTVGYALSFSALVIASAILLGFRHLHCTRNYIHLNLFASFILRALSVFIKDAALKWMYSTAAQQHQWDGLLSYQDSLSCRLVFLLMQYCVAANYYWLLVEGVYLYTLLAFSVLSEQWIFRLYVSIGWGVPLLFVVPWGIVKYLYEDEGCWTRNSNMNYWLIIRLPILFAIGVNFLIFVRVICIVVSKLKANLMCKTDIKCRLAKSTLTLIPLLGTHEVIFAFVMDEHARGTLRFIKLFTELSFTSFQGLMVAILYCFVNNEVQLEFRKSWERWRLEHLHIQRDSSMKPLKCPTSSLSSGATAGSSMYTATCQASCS

Row | SMILES | EC50 (Human GLP-1 receptors) | EC50 (Human glucagon receptors)
1 | CCCCCCCCCCCCCCCCCC(=O)N[C@@H](CCC(=O)NCCOCCOCC(=O)NCCOCCOCC(=O)NCCCC[C@H](NC(=O)[C@H](CC(=O)O)NC(=O)[C@H](CO)NC(=O)[C@@H](NC(=O)[C@H](Cc1ccccc1)NC(=O)[C@@H](NC(=O)CNC(=O)[C@H](CCC(N)=O)NC(=O)C(C)(C)NC(=O)[C@@H](N)Cc1c[nH]cn1)[C@@H](C)O)[C@@H](C)O)C(=O)N[C@@H](CO)C(=O)N[C@@H](CCCCN)C(=O)N[C@@H](Cc1ccc(O)cc1)C(=O)N[C@@H](CC(C)C)C(=O)N[C@@H](CC(=O)O)C(=O)N[C@H]1CC(=O)NCCCC[C@@H](C(=O)N[C@@H](CC(=O)O)C(=O)N[C@@H](Cc2ccccc2)C(=O)N[C@H](C(=O)N[C@@H](CCC(N)=O)C(=O)N[C@@H](Cc2c[nH]c3ccccc23)C(=O)N[C@@H](CC(C)C)C(=O)N[C@@H](CCSC)C(=O)N[C@@H](CC(N)=O)C(=O)N[C@H](C(=O)N[C@@H](CCCCN)C(=O)O)[C@@H](C)O)C(C)C)NC(=O)[C@H](C)NC(=O)[C@H](CCCNC(=N)N)NC(=O)[C@H](CCCNC(=N)N)NC1=O)C(=O)O [Compound 26, H-HAibQGTFTSDZSKYLDDRRAKDFVQWLMNTK-OH] | < 0.01 nM | < 0.01 nM
2 | CCCCCCCCCCCCCCCCCC(=O)N[C@@H](CCC(=O)NCCOCCOCC(=O)NCCOCCOCC(=O)NCCCC[C@H](NC(=O)[C@H](CC(=O)O)NC(=O)[C@H](CO)NC(=O)[C@@H](NC(=O)[C@H](Cc1ccccc1)NC(=O)[C@@H](NC(=O)CNC(=O)[C@H](CCC(N)=O)NC(=O)C(C)(C)NC(=O)[C@@H](N)Cc1c[nH]cn1)[C@@H](C)O)[C@@H](C)O)C(=O)N[C@@H](CO)C(=O)N[C@@H](CCCCN)C(=O)N[C@@H](Cc1ccc(O)cc1)C(=O)N[C@@H](CC(C)C)C(=O)N[C@@H](CC(=O)O)C(=O)N[C@H]1CCCCNC(=O)C[C@@H](C(=O)N[C@@H](CC(=O)O)C(=O)N[C@@H](Cc2ccccc2)C(=O)N[C@H](C(=O)N[C@@H](CCC(N)=O)C(=O)N[C@@H](Cc2c[nH]c3ccccc23)C(=O)N[C@@H](CC(C)C)C(=O)N[C@@H](CCSC)C(=O)N[C@@H](CC(N)=O)C(=O)N[C@H](C(=O)N[C@@H](CCCCN)C(=O)O)[C@@H](C)O)C(C)C)NC(=O)[C@H](C)NC(=O)[C@H](CCCNC(=N)N)NC(=O)[C@H](CCCNC(=N)N)NC1=O)C(=O)O [Compound 27, H-HAibQGTFTSDZSKYLDKRRADDFVQWLMNTK-OH] | < 0.01 nM | < 0.01 nM
3 | CCCCCCCCCCCCCCCCCC(=O)N[C@@H](CCC(=O)NCCOCCOCC(=O)NCCOCCOCC(=O)NCCCC[C@H](NC(=O)[C@H](CC(=O)O)NC(=O)[C@H](CO)NC(=O)[C@@H](NC(=O)[C@H](Cc1ccccc1)NC(=O)[C@@H](NC(=O)CNC(=O)[C@H](CCC(N)=O)NC(=O)C(C)(C)NC(=O)[C@@H](N)Cc1c[nH]cn1)[C@@H](C)O)[C@@H](C)O)C(=O)N[C@@H](CO)C(=O)N[C@@H](CCCCN)C(=O)N[C@@H](Cc1ccc(O)cc1)C(=O)N[C@@H](CC(C)C)C(=O)N[C@@H](CC(=O)O)C(=O)N[C@H]1CSSC[C@@H](C(=O)N[C@@H](CC(=O)O)C(=O)N[C@@H](Cc2ccccc2)C(=O)N[C@H](C(=O)N[C@@H](CCC(N)=O)C(=O)N[C@@H](Cc2c[nH]c3ccccc23)C(=O)N[C@@H](CC(C)C)C(=O)N[C@@H](CCSC)C(=O)N[C@@H](CC(N)=O)C(=O)N[C@H](C(=O)N[C@@H](CCCCN)C(=O)O)[C@@H](C)O)C(C)C)NC(=O)[C@H](C)NC(=O)[C@H](CCCNC(=N)N)NC(=O)[C@H](CCCNC(=N)N)NC1=O)C(=O)O [Compound 28, H-HAibQGTFTSDZSKYLDCRRACDFVQWLMNTK-OH] | 0.1 to 1 nM | 0.1 to 1 nM
4 | CCCCCCCCCCCCCCCCCC(=O)N[C@@H](CCC(=O)NCCOCCOCC(=O)NCCOCCOCC(=O)NCCCC[C@H](NC(=O)[C@H](CC(=O)O)NC(=O)[C@H](CO)NC(=O)[C@@H](NC(=O)[C@H](Cc1ccccc1)NC(=O)[C@@H](NC(=O)CNC(=O)[C@H](CCC(N)=O)NC(=O)C(C)(C)NC(=O)[C@@H](N)Cc1c[nH]cn1)[C@@H](C)O)[C@@H](C)O)C(=O)N[C@@H](CO)C(=O)N[C@@H](CCCCN)C(=O)N[C@@H](Cc1ccc(O)cc1)C(=O)N[C@@H](CC(C)C)C(=O)N[C@@H](CC(=O)O)C(=O)N[C@H]1CCC(=O)NCCNC(=O)CC[C@@H](C(=O)N[C@@H](CC(=O)O)C(=O)N[C@@H](Cc2ccccc2)C(=O)N[C@H](C(=O)N[C@@H](CCC(N)=O)C(=O)N[C@@H](Cc2c[nH]c3ccccc23)C(=O)N[C@@H](CC(C)C)C(=O)N[C@@H](CCSC)C(=O)N[C@@H](CC(N)=O)C(=O)N[C@H](C(=O)N[C@@H](CCCCN)C(=O)O)[C@@H](C)O)C(C)C)NC(=O)[C@H](C)NC(=O)[C@H](CCCNC(=N)N)NC(=O)[C@H](CCCNC(=N)N)NC1=O)C(=O)O [Compound 30, H-HAibQGTFTSDZSKYLDERRAEDFVQWLMNTK-OH] | < 0.01 nM | < 0.01 nM
5 | CCCCCCCCCCCCCCCCCC(=O)N[C@@H](CCC(=O)NCCOCCOCC(=O)NCCOCCOCC(=O)NCCCC[C@H](NC(=O)[C@H](CC(=O)O)NC(=O)[C@H](CO)NC(=O)[C@@H](NC(=O)[C@H](Cc1ccccc1)NC(=O)[C@@H](NC(=O)CNC(=O)[C@H](CCC(N)=O)NC(=O)C(C)(C)NC(=O)[C@@H](N)Cc1c[nH]cn1)[C@@H](C)O)[C@@H](C)O)C(=O)N[C@@H](CO)C(=O)N[C@@H](CCCCN)C(=O)N[C@@H](Cc1ccc(O)cc1)C(=O)N[C@@H](CC(C)C)C(=O)N[C@@H](CC(=O)O)C(=O)N[C@H]1CCCCNC(=O)c2ccc(cc2)C(=O)NCCCC[C@@H](C(=O)N[C@@H](CC(=O)O)C(=O)N[C@@H](Cc2ccccc2)C(=O)N[C@H](C(=O)N[C@@H](CCC(N)=O)C(=O)N[C@@H](Cc2c[nH]c3ccccc23)C(=O)N[C@@H](CC(C)C)C(=O)N[C@@H](CCSC)C(=O)N[C@@H](CC(N)=O)C(=O)N[C@H](C(=O)N[C@@H](CCCCN)C(=O)O)[C@@H](C)O)C(C)C)NC(=O)[C@H](C)NC(=O)[C@H](CCCNC(=N)N)NC(=O)[C@H](CCCNC(=N)N)NC1=O)C(=O)O [Compound 31, H-HAibQGTFTSDZSKYLDKRRAKDFVQWLMNTK-OH] | < 0.01 nM | < 0.01 nM
6 | CCCCCCCCCCCCCCCCCC(=O)N[C@@H](CCC(=O)NCCOCCOCC(=O)NCCOCCOCC(=O)NCCCC[C@H](NC(=O)[C@H](CC(=O)O)NC(=O)[C@H](CO)NC(=O)[C@@H](NC(=O)[C@H](Cc1ccccc1)NC(=O)[C@@H](NC(=O)CNC(=O)[C@H](CCC(N)=O)NC(=O)C(C)(C)NC(=O)[C@@H](N)Cc1c[nH]cn1)[C@@H](C)O)[C@@H](C)O)C(=O)N[C@@H](CO)C(=O)N[C@@H](CCCCN)C(=O)N[C@@H](Cc1ccc(O)cc1)C(=O)N[C@@H](CC(C)C)C(=O)N[C@@H](CC(=O)O)C(=O)N[C@H]1CCCCNC(=O)C2CCN(CC2)C(=O)CC[C@@H](C(=O)N[C@@H](CC(=O)O)C(=O)N[C@@H](Cc2ccccc2)C(=O)N[C@H](C(=O)N[C@@H](CCC(N)=O)C(=O)N[C@@H](Cc2c[nH]c3ccccc23)C(=O)N[C@@H](CC(C)C)C(=O)N[C@@H](CCSC)C(=O)N[C@@H](CC(N)=O)C(=O)N[C@H](C(=O)N[C@@H](CCCCN)C(=O)O)[C@@H](C)O)C(C)C)NC(=O)[C@H](C)NC(=O)[C@H](CCCNC(=N)N)NC(=O)[C@H](CCCNC(=N)N)NC1=O)C(=O)O [Compound 32, H-HA1 bQGTFTSDZSKYLDKRRAEDFVQWLMNTK-OH] | < 0.01 nM | < 0.01 nM
7 | CCCCCCCCCCCCCCCCCC(=O)N[C@@H](CCC(=O)NCCOCCOCC(=O)NCCOCCOCC(=O)NCCCC[C@H](NC(=O)[C@H](CC(=O)O)NC(=O)[C@H](CO)NC(=O)[C@@H](NC(=O)[C@H](Cc1ccccc1)NC(=O)[C@@H](NC(=O)CNC(=O)[C@H](CCC(N)=O)NC(=O)C(C)(C)NC(=O)[C@@H](N)Cc1c[nH]cn1)[C@@H](C)O)[C@@H](C)O)C(=O)N[C@@H](CO)C(=O)N[C@@H](CCCCN)C(=O)N[C@@H](Cc1ccc(O)cc1)C(=O)N[C@@H](CC(C)C)C(=O)N[C@@H](CC(=O)O)C(=O)N[C@H]1CCC(=O)NC2CCC(CC2)C(=O)NCCCC[C@@H](C(=O)N[C@@H](CC(=O)O)C(=O)N[C@@H](Cc2ccccc2)C(=O)N[C@H](C(=O)N[C@@H](CCC(N)=O)C(=O)N[C@@H](Cc2c[nH]c3ccccc23)C(=O)N[C@@H](CC(C)C)C(=O)N[C@@H](CCSC)C(=O)N[C@@H](CC(N)=O)C(=O)N[C@H](C(=O)N[C@@H](CCCCN)C(=O)O)[C@@H](C)O)C(C)C)NC(=O)[C@H](C)NC(=O)[C@H](CCCNC(=N)N)NC(=O)[C@H](CCCNC(=N)N)NC1=O)C(=O)O [Compound 33, H-HAibQGTFTSDZSKYLDERRAKDFVQWLMNTK-OH] | < 0.01 nM | < 0.01 nM
8 | CCCCCCCCCCCCCCCCCC(=O)N[C@@H](CCC(=O)NCCOCCOCC(=O)NCCOCCOCC(=O)NCCCC[C@H](NC(=O)[C@H](CC(=O)O)NC(=O)[C@H](CO)NC(=O)[C@@H](NC(=O)[C@H](Cc1ccccc1)NC(=O)[C@@H](NC(=O)CNC(=O)[C@H](CCC(N)=O)NC(=O)C(C)(C)NC(=O)[C@@H](N)Cc1c[nH]cn1)[C@@H](C)O)[C@@H](C)O)C(=O)N[C@@H](CO)C(=O)N[C@@H](CCCCN)C(=O)N[C@@H](Cc1ccc(O)cc1)C(=O)N[C@@H](CC(C)C)C(=O)N[C@@H](CC(=O)O)C(=O)N[C@H]1CCC(=O)NCC(=O)NCCCC[C@@H](C(=O)N[C@@H](CC(=O)O)C(=O)N[C@@H](Cc2ccccc2)C(=O)N[C@H](C(=O)N[C@@H](CCC(N)=O)C(=O)N[C@@H](Cc2c[nH]c3ccccc23)C(=O)N[C@@H](CC(C)C)C(=O)N[C@@H](CCSC)C(=O)N[C@@H](CC(N)=O)C(=O)N[C@H](C(=O)N[C@@H](CCCCN)C(=O)O)[C@@H](C)O)C(C)C)NC(=O)[C@H](C)NC(=O)[C@H](CCCNC(=N)N)NC(=O)[C@H](CCCNC(=N)N)NC1=O)C(=O)O [Compound 35, H-HAibQGTFTSDZSKYLDERRAKDFVQWLMNTK-OH] | < 0.01 nM | < 0.01 nM

Reference: patent US11713344B2 (DONG-A ST CO., LTD., priority 2017, dated 2023)
